Results as given in ChEMBL document CHEMBL4266050, “Metabolomics-Driven Discovery of Meroterpenoids from a Mussel-Derived Penicillium ubiquetum” (J Nat Prod, 2018).
Calls of active or inactive are those of the source. The calls are words filed in the database; no cut-off is given here.

Key:
KB [1] = assay: Cytotoxicity against human KB cells at 50 uM by MTT assay; type: functional, cell-based
MCF7 [2] = assay: Cytotoxicity against human MCF7 cells at 50 uM by MTT assay; type: functional, cell-based
KB [3] = assay: Cytotoxicity against human KB cells by MTT assay; type: functional, cell-based
MCF7 [4] = assay: Cytotoxicity against human MCF7 cells by MTT assay; type: functional, cell-based
[5] = Stability of the compound; type: physicochemical

Stability [5] | SMILES | Activity (KB [1]) | Activity (MCF7 [2]) | IC50 (KB [3]) [nM] | IC50 (MCF7 [4]) [nM]
– | COC(=O)O[C@@H]1C=C2C(=CC(=O)OC2(C)C)[C@H](C)[C@@H]2C[C@@]3(C)C(=O)O[C@H]4O[C@@H](C)C(=O)[C@@H]([C@@]12C)[C@]43O | inactive | inactive | – | –
– | CC(=O)O[C@@]12CO[C@@H]1C[C@H](O)[C@@]1(C)C(=O)[C@H](O)C3=C(C)[C@@H](OC(=O)[C@H](O)[C@@H](NC(=O)OC(C)(C)C)c4ccccc4)C[C@@](O)([C@@H](OC(=O)c4ccccc4)[C@H]21)C3(C)C [DOCETAXEL ANHYDROUS] | – | – | 38 | 10.3
– | COC(=O)[C@]12C(=O)[C@H](C)O[C@@H]3OC(=O)[C@](C)(C[C@H]4C(C)=C5CC(=O)OC(C)(C)C5=CC[C@@]41C)[C@@H]32 | inactive | inactive | – | –
– | COC(=O)[C@@]12[C@@H]3[C@H]4OC(=O)[C@]3(C)C[C@@H]3[C@]1(C)[C@@H](C=C1C(=CC(=O)OC1(C)C)[C@@]3(C)O)O[C@]2(O)[C@H](C)O4 | inactive | inactive | – | –
Unstable | COC(=O)[C@]12C(=O)[C@H](C)O[C@@H]3OC(=O)[C@](C)(C[C@H]4[C@@H](C)C5=CC(=O)OC(C)(C)C5=C[C@@H](O)[C@@]41C)[C@@H]32 | – | – | – | –
– | COC(=O)[C@]12[C@@H]3[C@H]4OC(=O)[C@]3(C)CC3=C(C)C5=C(C[C@@H](O[C@]1(O)[C@H](C)O4)[C@@]32C)C(C)(C)OC(=O)C5 | inactive | inactive | – | –
– | COC(=O)O[C@@H]1C=C2C(=CC(=O)OC2(C)C)[C@H](C)[C@@H]2C[C@@]3(C)C(=O)O[C@H]4O[C@@H](C)C(=O)[C@H]([C@H]43)[C@@]12C | inactive | inactive | – | –
– | COC(=O)[C@]12[C@@H]3[C@H]4OC(=O)[C@]3(C)C[C@H]3[C@@H](C)C5=CC(=O)OC(C)(C)C5=C[C@@H](O[C@]1(O)[C@H](C)O4)[C@@]32C | inactive | inactive | – | –
– | COC(=O)[C@@]12[C@@]3(C)[C@H]4C=C5C(=CC(=O)OC5(C)C)[C@H](C)[C@@H]3C[C@@]3(C)C(=O)O[C@@H](O[C@@H](C)[C@@]1(O)O4)[C@@]23O | inactive | inactive | – | –
– | COC(=O)[C@@]1(C)O[C@H]2OC(=O)[C@@H]3[C@H]2[C@@](C)(C[C@H]2C(C)=C4CC(=O)OC(C)(C)C4=CC[C@]32C)C1=O | inactive | inactive | – | –
